Assay results: patent US20050009007A1 (priority 2003, published 2005)

Tested on: giant synaptic terminal of depolarizing bipolar cells from the goldfish retina
Format: cell-based
Settings: n=7

Q: `O=C(O)CN(CC(=O)O)c1ccccc1OCCOc1ccccc1N(CC(=O)O)CC(=O)O` [BAPTA] was tested. Which “increase in area of the footprint triggered by depolarization” value did it give?
A: Its value is “completely blocked”.
